Key:
[1] = tested on: cells; assay: Cell toxicity of sugar analogs at the levels used for metabolic incorporation; format: cell-based; conditions: compared with azido Fuc analogs of previous approaches; 200 μM fucose precursors, 25 μM sialic acid precursors
Protocol: In an exemplary implementation of the MOE method disclosed herein, an appropriate cell growth medium is supplemented with a peracetylated version of the CuAAC competent sugars, 25 μM for sialic acid precursors and 200 μM for fucose precursors (although peracetylation increases cellular uptake of sugars, the acetate groups are cleaved by esterases before it is converted to the nucleotide-sugar donor and incorporated into emerging glycans via glycosyltransferases). As shown by the biosynthetic pathways in FIG. 1, the ManNAc derivatives feed directly into de novo synthesis of NeuAc-CMP, whereas, fucose derivatives are incorporated through a salvage pathway for the synthesis of Fuc-GDP. For labeling, the alkyne-tagged cellular glycans, cells and/or cell lysates are treated with an appropriate CuAAC probe (depicted as 6-8 in FIG. 2). Overall, CuAAC is well-suited for functionalizing cellular glycans since it may be performed in aqueous environments, with high chemoselectively, to form stable 1,2,3-triazoles in nearly quantitative yield, starting from inconspicuous and inert azide or alkyne reaction partners. In conjunction the triazole ligand, CuAAc reactions can be executed under very mild and biocompatible conditions, requiring ambient temperature and low reactant concentrations. […] CuAAC is well-suited for end-point analysis, such as flow cytometry and glycoproteomic purposes. […]

[2] = tested on: Jurkat cells; assay: Flow cytometry of cell-surface CuAAC labeling of alkynyl-tagged glycans; format: cell-based; conditions: for cell-surface fluorescent labeling: CuAAC with 3-azido-7-hydroxycoumarin probe
Protocol: Cell culture: Breast cancer MCF-7 and Jurkat cells were cultivated (2×10^6/10 ml) in RPMI 1640 medium (Invitrogen) supplemented with 10% FCS. Peracetylated alkynyl sugars Fucyne (200 uM) and ManNAcyne (25 uM) or native control sugars ManNAc for 1 to 3 days at 37° C.
Flow cytometry analysis: Cells were harvested, washed with 0.1% FCS/PBS, and resuspended (10^6 cells for Jurkat cells; 3×10^5 cells for other cells) in 100 microliters of click reaction solution (0.1 mM biotin probe, 0.1 mM Tris-triazoleamine catalyst, 0.1 mM CuSO4/0.5 mM sodium ascorbate, in PBS). The reaction was incubated at room temperature for 30 min, and then the cells were washed twice with 0.1% FCS/PBS. Cells treated with biotin probe were subsequently stained with fluorescein-conjugated streptavidin (0.5 microgram per sample in 50 microliters of 1% FCS/PBS) for 30 min at 4° C., and washed three times with 1% FCS/PBS. Data were acquired by BD LSR II with FACSDiva software, and were analyzed by CellQuestPro software (BD Biosciences).

[3] = tested on: cell extracts (soluble lysate fractions); assay: SDS/PAGE, Western blot and fluorescence detection of labeled glycoproteins in cell extracts; format: cell-based; conditions: for biotin-labeling signal of proteins by Western blot: lysate clicked with biotin probe, mouse anti-biotin MAb, 200 micromolar Fucyne, 25 micromolar ManNAcyne, 3 days; for signal by Western blot or fluorescence: control sugars processed under the same click condition
Protocol: Immunoblotting (IB) and immunoprecipitation (IP): Cells were seeded at 3×10^6/8 ml per 10-cm dish and treated with control and test sugars (200 micromolar Fuc vs. Fucyne or 25 micromolar ManNAc vs. ManNAcyne) in growth medium at 37° C. After 3 days, cell extracts were prepared by resuspending the cells in 1 ml of lysis buffer (1% Nonidet P-40/150 mM NaCl/protease inhibitor/100 mM sodium phosphate, pH 7.5). Protein extract (1 mg/ml) was labeled for 1 h at room temperature (0.1 mM biotin probe, or fluorogenic coumarin probe, 0.1 mM tris-triazoleamine catalyst, 1 mM CuSO4, and 2 mM sodium ascorbate, in PBS; the azido rhodamine probe was a gift from Benjamin F. Cravatt, The Scripps Research Institute). Labeled protein lysate was resolved by SDS/PAGE. For immunoblotting of biotin-labeled glycoproteins, electrophoresed proteins were transferred onto PVDF membranes, blocked for 20 min with SuperBlock® Blocking Buffer. Blots were either probed for 1 h with anti-biotin MAb (1 microgram/ml), and incubated with peroxidase-conjugated goat anti-mouse IgG (1:7,500 dilution) for 30 min; or probed for 1 h with peroxidase-conjugated anti-biotin Ab (Calbiochem)(1:5000 in SuperBlock). Each step was followed by a wash with 0.02% Tween 20/PBS (PBST). Signal was developed with SuperSignal Chemiluminescent Substrate and detected by exposure to x-ray film. For detecting the coumarin-labeled glycoproteins, gels were examined under 365 nm UV light with a 535+/−50 nm filter. Images were taken by using a BioDoc-It imaging system (UVP). Rhodamine gels were analyzed as described (Speers A E, Cravatt B F (2004) Chem Biol 11:535-546).

[4] = tested on: MCF7 (breast adenocarcinoma) cells; assay: Confocal microscopy of intracellular labeling of alkynyl-tagged glycans; format: cell-based, Human; conditions: 3-day incubation, biotin probe and fluorescein-conjugated streptavidin, overlaps with WGA (Golgi) signal
Protocol: (§1) To visualize the localization of alkyne-tagged glycans, adherent cells were grown on slides in the presence or absence of alkynyl sugar analogs or precursors. After a 3-day-incubation, cells attached to the slides are fixed, permeabilized, and labeled with either a biotin probe or fluorogenic coumarin probe for fluorescent signal analysis with confocal microscopy, as shown in FIG. 3C. For comparison, samples are also stained with wheat germ agglutinin (WGA, a Golgi marker).
(§2) Fluorescent Labeling in Cells: Human hepatocellular carcinoma cells (Hep3B) or breast adenocarcinoma cells (MCF7) were seeded onto six-well plates (3×10^5/2 ml per well) containing glass coverslips, and were cultivated in 10% FCS/DMEM or 10% FCS/RPMI medium 1640. Growth medium was supplemented with a control sugar (200 micromolar Fuc or 25 micromolar ManNAc) and an alkynyl-modified sugar (Fucyne or ManNAcyne at the same concentration as control sugars). After growing for 3 days, cells on coverslips were fixed and permeabilized with acetone for 10 min, then subjected to the probe labeling reaction: 0.1 mM biotin probe or fluorogenic coumarin probe, 0.1 mM Tris-triazoleamine catalyst, 1 mM CuSO4, 2 mM sodium ascorbate, in PBS, at room temperature for 30 min. Subsequently, the fixed and labeled cells were rinsed with PBS and stained with Alexa Fluor 594-conjugated WGA lectin (2 micrograms/ml in 5% BSA/PBS) and/or fluorescein-conjugated streptavidin (2 micrograms/ml in 5% BSA/PBS) at room temperature for 30 min. Hoechst 33342 (10 microgram/ml in PBS) was used to stain nuclei. Fluorescent images were captured by Bio-Rad (Carl Zeiss) Radiance 2100 Rainbow laser scanning confocal microscopy system.

[5] = tested on: plexin B2 in A549 mock, FucT4 and FucT6 cells; assay: Incorporation of alkynyl fucose into plexin B2 glycans (IP, on-membrane click reaction, streptavidin blot); format: cell-based; conditions: alkynyl fucose-treated mock, stronger in FucT4/6-overexpressing cells, no signal without treatment
Protocol: Total proteins were extracted from untreated or alkynyl fucose-treated mock control, FucT4 and FucT6 stable cell lines. Proteins ([…]) were dissolved in 500 ml IP buffer (1% NP-40, 150 mM NaCl, 10% glycerol, 50 mM HEPES, pH 7.5 and 1×EDTA-free protease inhibitor cocktail) and precleared with 25 ml protein G beads (GE Healthcare) at 4° C. for 1 h. Precleared proteins extracts were then incubated with 3 mg anti-plexin B2 antibody/25 ml protein G beads at 4° C. for 1 h for overnight. Immunoprecipitates were subjected to SDS-PAGE and the proteins were transferred to PVDF membrane. After blocking with 5% BSA/PBST (0.1% Tween 20/PBS) for 1 h and wash with PBST and PBS sequentially, the protein-side of PVDF membrane was faced down to immerse in click reaction mixture (0.1 mM azido biotin, 0.1 mM Tris-triazoleamine catalyst, 1 mM CuSO4, 2 mM sodium ascorbate; 1 ml for a blot from a mini-gel) and incubated at room temperature for 1 h. After wash with PBST twice, the membrane was probed with peroxidase-conjugated streptavidin for biotin tags on blots.
Comparative profiling of fucosylated N-linked glycoproteins using the GIDmap method disclosed herein was conducted in lung cancer cell line A549 over-expressing either fucosyltransferases (FucT) 4 or 6. […] The biotin signals were then detected by immunoblotting with peroxidase-conjugated streptavidin. […]

[6] = tested on: Hep3B hepatocellular carcinoma cells; assay: Confocal microscopy of intracellular labeling of alkynyl-tagged glycans; format: cell-based, Human; conditions: 3-day incubation; biotin probe and fluorogenic coumarin probe; compared with the Fucyne result
Protocol: as §1, §2

Row | Compound | toxicity to cells [1] | cell-surface fluorescent labeling [2] | biotin-labeling signal of proteins by Western blot [3] | intracellular labeling signal (confocal microscopy) [4] | biotin signal of immunoprecipitated plexin B2 after on-membrane CuAAC [5] | signal by Western blot or fluorescence [3] | intracellular labeling signal (confocal microscopy) [6] | cell-surface labeling signal ([2]; CuAAC-labeled with biotin, detected by fluorescein-conjugated streptavidin, vs control ManNAc)
1 | 1,2,3,4-tetraacetyl alkynyl fucose [Fucyne] | greatly reduced toxicity | significant fluorescent labeling | specific biotin-labeling signals were detected | strong punctuate-labeling signal | positive signals | – | – | –
2 | C[C@H](O)[C@@H](O)[C@@H](O)[C@H](O)C=O [Fuc, Fucose, reference compound] | – | very low background signals | – | very low background | – | little to no signal | – | –
3 | CC(=O)N[C@@H]1C(O)O[C@H](CO)[C@@H](O)[C@@H]1O (stereo partly shown) [ManNAc, N-acetylmannosamine, reference compound] | – | – | – | – | – | little to no signal | very low background | –
4 | C#CCCC(=O)N[C@@H]1C(OC(C)=O)O[C@H](COC(C)=O)[C@@H](OC(C)=O)[C@@H]1OC(C)=O (stereo partly shown) [ManNAcyne, 1,3,4,6-tetra-O-acetyl-N-4-pentynoylmannosamine] | greatly reduced toxicity | – | specific biotin-labeling signals were detected | – | – | – | – | specific signal on the cell surface

From patent US7943330B2, “Tailored glycoproteomic methods for the sequencing, mapping and identification of cellular glycoproteins” (Academia Sinica, priority 2007, dated 2011)
